The text below walks through data of PMC6395927, “Rufomycin Targets ClpC1 Proteolysis in Mycobacterium tuberculosis and M. abscessus” (Antimicrobial Agents and Chemotherapy, 2019).

Data set [1] deals with M. tuberculosis strain H37Rv (ATCC 27294). Kind of data set: microbe, parasite or virus in culture. The data set is classed as cell-based, Mycobacterium tuberculosis. The following applies: Mycobacterium tuberculosis.
The test system of data set [2] is M. tuberculosis 5 global clade representatives. Kind of data set: microbe, parasite or virus in culture. Type of data set: cell-based. Conditions: Mycobacterium tuberculosis, read-out: MICs.
Data set [3] relates to Candida albicans (ATCC 10231). As to the kind of experiment: MIC against nonmycobacteria (OD570). The following applies: ATCC10231, C. albicans. The data set is classed as cell-based. The text has this: (§1) Standard compounds used were ampicillin (AMP) and gentamicin (GEN). […] Amphotericin B (AmphB) and ketoconazole (KETO) were used as standard compounds.
The test system of data set [4] is Escherichia coli (ATCC 25922). Kind of data set: MIC against nonmycobacteria (OD570). The data set is classed as cell-based. The following applies: ATCC25922, E. coli.
Excerpt: as §1

Data set [5] has as its system Staphylococcus aureus (ATCC 29213). Kind of data set: MIC against nonmycobacteria (OD570). The data set is classed as cell-based. The following applies: ATCC29213, S. aureus.
Excerpt: as §1

Data set [6] deals with M. smegmatis (ATCC 700084). As to the kind of experiment: microbe, parasite or virus in culture. Type of data set: cell-based. Conditions: Mycolicibacterium smegmatis, ATCC700084; M. smegmatis; read-out: MIC.
The test system of data set [7] is M. abscessus (ATCC 19977). Kind of data set: microbe, parasite or virus in culture. The data set is classed as cell-based, Mycobacterium abscessus. The following applies: Mycobacteroides abscessus, ATCC19977, M. abscessus; read-out: MIC.
The test system of a further data set is M. chelonae (ATCC 35752). Kind of data set: microbe, parasite or virus in culture. Conditions: Mycobacteroides chelonae, ATCC35752; M. chelonae; read-out: MIC. Type of data set: cell-based, Mycobacterium chelonae.
A further data set has as its system M. marinum (ATCC 927). Kind of data set: microbe, parasite or virus in culture. The following applies: Mycobacterium marinum, ATCC927; M. marinum; read-out: MIC. The data set is classed as cell-based.
A further data set relates to M. bovis (ATCC 35734). As to the kind of experiment: microbe, parasite or virus in culture. Type of data set: cell-based. Conditions: Mycobacterium tuberculosis variant bovis, ATCC35734.
The test system of another data set is M. kansasii (ATCC 12478). Kind of data set: microbe, parasite or virus in culture. Type of data set: cell-based. Conditions: Mycobacterium kansasii, ATCC12478; M. kansasii; read-out: MIC.
Another data set has as its system M. avium (ATCC 15769). Kind of data set: microbe, parasite or virus in culture. Type of data set: cell-based. Conditions: Mycobacterium avium, ATCC15769; M. avium; read-out: MIC.
The next data set concerns M. tuberculosis. Kind of data set: microbe, parasite or virus in culture. The following applies: Mycobacterium tuberculosis, read-out: MBC (minimum bactericidal concentration). The data set is classed as cell-based, Mycobacterium tuberculosis.
In data set [8] the test system is nonreplicating cultures of M. tuberculosis. As to the kind of experiment: microbe, parasite or virus in culture. The data set is classed as cell-based, Mycobacterium tuberculosis. The following applies: Mycobacterium tuberculosis.
The target in another data set is ClpC1 (Mycobacterium tuberculosis, UniProt P9WPC9). Type of data set: biochemical, M. tuberculosis.
The target in a further data set is ClpC1/P1/P2 complex (Mycobacterium tuberculosis, UniProt P9WPC9). Type of data set: biochemical, M. tuberculosis.
The conditions of data set [9]: ECU, micelle formulation; cited from earlier work.

Converted amounts (≈) assume the structure as drawn. Numbered stars: 1 amine (or outer) side, 2 acyl side, 3 side chain; on linkers, the order of the positions; unused ones are H or OH. Bridge positions count the residues as written; N and C are the ends. Square brackets hold non-standard residues; d marks the D form. Peptide text beside a SMILES is read from it. * marks the point of attachment. ξ: configuration not given here. NMeTrp(4-OMe) = CN[CH](Cc1c[nH]c2cccc(OC)c12)C(=O)O; X1 = O=C(C(N[*:1])C(O)c1ccccc1)[*:2]; NMeI = CC[CH](C)[CH](NC)C(=O)O; ξNMe2Val = CC(C)C(C(=O)*)N(C)C; NMeT = CN[CH](C(=O)O)[CH](C)O; NMeL = CN[CH](CC(C)C)C(=O)O; NMeV = CN[CH](C(=O)O)C(C)C

Sequence of ClpC1 (P9WPC9 whole entry): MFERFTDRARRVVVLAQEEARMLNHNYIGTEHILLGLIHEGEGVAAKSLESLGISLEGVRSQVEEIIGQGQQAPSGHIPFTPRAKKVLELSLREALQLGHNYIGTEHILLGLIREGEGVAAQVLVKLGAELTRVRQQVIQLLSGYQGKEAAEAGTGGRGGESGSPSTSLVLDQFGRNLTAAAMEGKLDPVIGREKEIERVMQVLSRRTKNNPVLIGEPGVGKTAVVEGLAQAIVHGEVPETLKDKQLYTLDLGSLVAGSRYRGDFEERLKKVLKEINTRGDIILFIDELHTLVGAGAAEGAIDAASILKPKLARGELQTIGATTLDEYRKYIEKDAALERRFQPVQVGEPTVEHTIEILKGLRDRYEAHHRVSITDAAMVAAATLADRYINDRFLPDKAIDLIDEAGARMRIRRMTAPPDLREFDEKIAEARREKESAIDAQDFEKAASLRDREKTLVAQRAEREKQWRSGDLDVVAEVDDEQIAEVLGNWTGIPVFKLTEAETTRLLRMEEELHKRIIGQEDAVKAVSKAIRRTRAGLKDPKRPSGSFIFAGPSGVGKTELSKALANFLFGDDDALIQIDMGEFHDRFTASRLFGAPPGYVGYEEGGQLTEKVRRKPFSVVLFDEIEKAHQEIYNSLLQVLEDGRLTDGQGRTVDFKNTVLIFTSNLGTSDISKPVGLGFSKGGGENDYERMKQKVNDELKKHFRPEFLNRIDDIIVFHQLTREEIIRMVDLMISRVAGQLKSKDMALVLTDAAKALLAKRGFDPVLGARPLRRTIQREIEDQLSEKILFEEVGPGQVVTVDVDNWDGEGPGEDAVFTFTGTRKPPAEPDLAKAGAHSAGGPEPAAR
Sequence of ClpC1/P1/P2 complex (P9WPC9 whole entry, one chain of several): as the sequence (P9WPC9 whole entry) above

`CCC(C)C(C(=O)NC1C(=O)N(C)C(C(C)O)C(=O)NC(C(C)C)C(=O)N(C)C(CC(C)C)C(=O)NC(C(C)C)C(=O)N(C)C(C(C)C)C(=O)N(C)C(Cc2c[nH]c3cccc(OC)c23)C(=O)NC(C(C)C)C(=O)NC(C(O)c2ccccc2)C(=O)NC(C(C)C)C(=O)OC1C)N(C)C(=O)C(NC(=O)C(C(C)C)N(C)C)C(C)C` (centres unmarked) [ECU, ecumicin] (ξNMe2Val-V[NMeI]T[NMeT]V[NMeL]V[NMeV][NMeTrp(4-OMe)]V[X1]V; ester 3-C; configuration not given here): the MIC is 0.16 µM (≈ 0.256 µg/mL) in data set [1]; 0.13 to 0.38 µM (≈ 0.208 to 0.608 µg/mL) in [2]; more than 32 µM in data set [3]; more than 32 µM in data set [4]; more than 32 µM in data set [5]; 1.7 µM (≈ 2.72 µg/mL) in [6]. Moreover, the MIC is more than 63 µM in data set [7]; 0.97 µM (≈ 1.55 µg/mL) in the data set on M. chelonae (ATCC 35752); 0.95 µM (≈ 1.52 µg/mL) with M. marinum (ATCC 927); less than 0.2 µM against M. bovis (ATCC 35734); 4 µM (≈ 6.4 µg/mL) with M. kansasii (ATCC 12478); 0.35 µM (≈ 0.56 µg/mL) in the data set on M. avium (ATCC 15769). For the same molecule, the MBC in the data set with M. tuberculosis turned out to be 0.34 µM (≈ 0.544 µg/mL); in [8] it was 1.5 µM (≈ 2.4 µg/mL). Further, the “effect on ClpC1 ATPase activity” value at ClpC1 is “stimulates the ATPase activity”. The “effect on proteolytic activity of ClpC1/P1/P2 (FITC-casein degradation)” value at ClpC1/P1/P2 complex is “inhibits ClpC1 proteolysis”. Further, the terminal half-life in [9] was 3 h.
